US20100260689A1, “REDUCING SHAVING FREQUENCY” (BEIERSDORF AG, priority 2007, published 2010)

Experiment: Cutting force during the shaving of human hair after 24 hours of exposure time (universal test apparatus with cutting force adapter)
Conditions: products A-D in artificial sweat solution, five hair fibers cut, 90° cutting angle
Description: The measurements are thereby carried out on a universal test apparatus with cutting force adapter with four friction bearings and recorded by means of TestXpert software.
Five hair fibers were cut for the measurement.
Due to the influence of the cross section of the hair fiber, a preliminary grouping of the hair fibers to be cut is indispensable, which ensures that the products to be compared were carried out on hair fibers with the same cross section so that relative results are obtained.
Five hair fibers fixed on one side are cut with the aid of a commercially available blade (single-blade razor with replaceable blade) at a constant speed. The blade is thereby clamped in an adapter specially produced for this purpose, which ensures a guidance of the blade with the aid of four friction bearings. The determination of the cutting force is carried out by maximum force detection. At the same time, the friction force of the friction bearings is recorded during each measurement.
Measurement parameters: Measurement speed: 100 mm/min • Cutting angle: 90° • Blade grind: approx. 12°
The tested products A-D (see FIG. 1) comprise an artificial sweat solution composed of […]
In a further comparative test, the cutting force on human hair was measured after 24 hours of exposure time of three preparations (FIG. 2). […]

Substance: Aluminum chlorohydrate [aluminum chlorohydrates]
- cutting force during the shaving of human hair (FIG. 1): reduction of the cutting force
- cutting force during the shaving of human hair (FIG. 1, listed as ACH): cutting force reduction
